Data taken from the NIST ThermoML archive (doi:10.1021/je901030f).
Numbers after ± are expanded uncertainties.

Conditions: 101.33 kPa, Crystal, Buoyancy - hydrostatic balance with magnetic suspension - one sinker

[Cl-].[Cs+] [cesium chloride]
Conditions | mass density [kg/m3]
843 K | 3074.5 ± 16
853 K | 3067.6 ± 16
863 K | 3060.2 ± 16
873 K | 3052.4 ± 16
883 K | 3046 ± 16
893 K | 3040.9 ± 15
903 K | 3039.5 ± 15
913 K | 3041.8 ± 16

[Cl-].[K+] [potassium chloride]
Conditions | mass density [kg/m3]
973 K | 1805.8 ± 9.2
983 K | 1803.6 ± 9.2
993 K | 1800.6 ± 9.2
1003 K | 1797.1 ± 9.1
1013 K | 1794.5 ± 9.1
1023 K | 1793.6 ± 9.1
1033 K | 1793.6 ± 9.1
1043 K | 1796.6 ± 9.1

[Cl-].[Rb+] [rubidium chloride]
Conditions | mass density [kg/m3]
903 K | 2578.4 ± 13
913 K | 2573.5 ± 13
923 K | 2567.8 ± 13
933 K | 2562.2 ± 13
943 K | 2556.1 ± 13
953 K | 2551.7 ± 13
963 K | 2548.6 ± 13
973 K | 2547.6 ± 13
983 K | 2550.3 ± 13
993 K | 2556.4 ± 13

[Cl-].[Na+] [sodium chloride]
Conditions | mass density [kg/m3]
1013 K | 1931.2 ± 9.8
1023 K | 1905.8 ± 9.7
1033 K | 1890.4 ± 9.6
1043 K | 1888.3 ± 9.6
1053 K | 1882 ± 9.6
1063 K | 1884.9 ± 9.6
1073 K | 1889.8 ± 9.6
